Source: patent US12213970B2, “Pyridinyl sulfonamide derivatives, pharmaceutical compositions and uses thereof” (Boehringer Ingelheim International GmbH, priority 2018, dated 2025)
pIC50: −log10 of the molar value. Structures can show the parent of a compound that is named as a salt. Where two headings read alike, the source gives them in different places.

Key:
[1] = target: T1, human AOC3 enzyme (recombinant CHO cells) (Homo sapiens, UniProt Q16853); assay: AOC3 biochemical assay (MAO-Glo), human enzyme
T1 construct: expressed in transfected cells; host or cells: CHO cells
T1 sequence (Q16853 1-763): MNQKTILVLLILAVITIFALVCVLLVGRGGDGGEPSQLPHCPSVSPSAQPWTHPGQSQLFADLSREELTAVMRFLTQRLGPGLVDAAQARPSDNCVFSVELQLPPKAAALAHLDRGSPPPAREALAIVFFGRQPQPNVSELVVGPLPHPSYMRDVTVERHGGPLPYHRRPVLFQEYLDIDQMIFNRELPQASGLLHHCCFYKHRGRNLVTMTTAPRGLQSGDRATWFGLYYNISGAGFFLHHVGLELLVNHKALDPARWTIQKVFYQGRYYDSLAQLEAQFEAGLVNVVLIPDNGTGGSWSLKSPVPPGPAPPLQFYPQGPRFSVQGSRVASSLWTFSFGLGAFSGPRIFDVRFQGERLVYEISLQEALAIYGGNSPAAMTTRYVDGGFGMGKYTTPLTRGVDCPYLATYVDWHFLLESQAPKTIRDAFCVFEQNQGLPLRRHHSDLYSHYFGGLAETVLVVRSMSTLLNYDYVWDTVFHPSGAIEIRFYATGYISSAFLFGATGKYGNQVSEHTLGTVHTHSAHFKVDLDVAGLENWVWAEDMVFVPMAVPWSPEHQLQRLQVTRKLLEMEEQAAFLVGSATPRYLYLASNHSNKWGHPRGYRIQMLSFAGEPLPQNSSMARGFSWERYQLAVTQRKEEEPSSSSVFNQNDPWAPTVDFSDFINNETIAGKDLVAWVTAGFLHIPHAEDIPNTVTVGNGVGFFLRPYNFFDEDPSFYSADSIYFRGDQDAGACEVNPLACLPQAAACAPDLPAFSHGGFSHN
Source text: (§1) The MAO-Glo™ Assay (commercially available from PROMEGA, #V1402) provides a sensitive method for the measurement of monoamine oxidase (MAO) activity (Valley, M. P. et al., 2006, Anal. Biochem. 359: 238-246) from a variety of tissues, biofluids or recombinant expressed or purified enzymes. As substrate a derivate of the beetle luciferin ((4S)-4,5-dihydro-2-(6-hydroxybenzothiazolyl)-4-thiazole-carboxylic acid) is used, which is oxidized at a primary amine moiety. After a spontaneous elimination and a catalyzed esterase reaction, the turnover of luciferin by the luciferase is recorded as a signal of AOC3 activity.
An aliquot of 3 μL of the compound dilution is added to a 384 well plate (Optiplate, PS, flat bottom, white, PERKIN ELMER, #6007290) with a final DMSO concentration of 6.6%. Recombinant CHO cells, overexpressing the human (1500 cells/well), mouse (1000 cells/well) or rat (500 cells/well) AOC3 enzyme are diluted in reaction buffer and added in a volume of 15 μL to the wells. After incubation for 20 minutes at 37° C., 2 μL of MAO substrate (dissolved in DMSO at 16 mM, adjusted to assay concentration in reaction buffer to a final assay concentration of 20 μM) is added and further incubated for 60 minutes at 37° C. The turnover of the substrate is determined by the addition of 20 μL of the detection-mix which was generated by the addition of reconstitution buffer with esterase (PROMEGA, #V1402) to the luciferin detection reagent (PROMEGA, #V1402). After an incubation period of 20 minutes, the luminescent signal is measured with Envision 2104 Multilabel Reader (PERKIN ELMER).

[2] = target: T2, MAO-A (Homo sapiens, UniProt P21397); assay: MAO-A biochemical assay (MAO-Glo)
T2 construct: purchased Sigma-Aldrich M7316
T2 sequence (P21397 1-527): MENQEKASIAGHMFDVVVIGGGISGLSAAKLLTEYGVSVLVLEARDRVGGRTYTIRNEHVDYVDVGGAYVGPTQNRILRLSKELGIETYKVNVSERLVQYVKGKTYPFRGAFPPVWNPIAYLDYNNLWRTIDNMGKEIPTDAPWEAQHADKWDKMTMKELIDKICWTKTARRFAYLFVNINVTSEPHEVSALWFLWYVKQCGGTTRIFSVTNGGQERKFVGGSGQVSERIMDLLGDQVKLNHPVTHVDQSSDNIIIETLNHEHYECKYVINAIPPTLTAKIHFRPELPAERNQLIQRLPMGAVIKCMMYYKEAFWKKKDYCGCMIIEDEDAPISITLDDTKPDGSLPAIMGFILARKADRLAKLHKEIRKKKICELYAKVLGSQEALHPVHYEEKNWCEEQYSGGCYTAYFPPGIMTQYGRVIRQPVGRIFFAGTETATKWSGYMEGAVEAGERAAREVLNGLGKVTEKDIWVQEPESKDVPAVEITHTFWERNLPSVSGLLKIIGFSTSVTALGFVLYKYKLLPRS
Source text: as §1, with “MAO-A” for “AOC3”
An aliquot of 3 μL of the compound dilution is added to a 384 well plate (Optiplate, PS, flat bottom F, black, PERKIN ELMER, #6007270) in a DMSO concentration of 1.025%.
A MAO-A enzyme aliquot (M7316, Sigma-Aldrich) is thawed on ice, diluted in reaction buffer to 1.25 mU/μL and added in a volume of 5 μL to the wells. After incubation for 20 minutes at 37° C., 2 μL of MAO substrate (dissolved in DMSO at 16 mM, diluted to 20 μM in assay buffer to obtain a final assay concentration of 4 μM) is added, mixed, and the mixture further incubated for 60 minutes at 37° C.
The turnover of the substrate is determined by the addition of 10 μL of the Detection Reagent mix which was generated by the addition of reconstitution buffer with esterase (PROMEGA, #V1402) to the luciferin detection reagent (PROMEGA, #V1402). After an incubation period of 20 minutes at 37° C., the luminescent signal is measured with a […], e.g. Envision 2104 Multilabel Reader (PERKIN ELMER).

[3] = comparison table, read-out: IC50 AOC3
[4] = comparison table, read-out: IC50 MAO-A

Row | Compound | pIC50 [1, 3] | pIC50 [2, 4] | pIC50 ([1]; read-out: AOC3 IC50) | pIC50 ([2]; IC50, read-out: MAO-A)
1 | NC/C(=C/F)COc1cnc(N2CCC(O)CC2)nc1 [reference compound] | 8.40 | 4.26 | – | –
2 | CNC(=O)[C@@H]1[C@@H]2CN(S(=O)(=O)c3ccc(OC/C(=C\F)CN)nc3)C[C@@H]21 [Example 5] | – | – | 7.57 | < 4.30
3 | NC/C(=C/F)COc1ccc(S(=O)(=O)N2CC[C@H](C(=O)N3CCOCC3)C2)cn1 [Example 21] | – | – | 7.55 | < 4.30
4 | CC1(C(=O)NC2CCOCC2)CCN(S(=O)(=O)c2ccc(OC/C(=C\F)CN)nc2)CC1 [Example 48, 1-[6-((Z)-2-Aminomethyl-3-fluoro-allyloxy)-pyridine-3-sulfonyl]-4-methyl-piperidine-4-carboxylic acid (tetrahydropyran-4-yl)-amide trifluoroacetate] | – | – | 7.48 | < 4.30
5 | CC1(C(=O)NC2CC2)CCN(S(=O)(=O)c2ccc(OC/C(=C\F)CN)nc2)CC1 [Example 56] | – | – | 7.68 | < 4.30
6 | NC/C(=C/F)COc1ccc(S(=O)(=O)N2CCC(CC(=O)NCCO)CC2)cn1 [Example 52] | – | – | 7.77 | 4.59
7 | CNC(=O)C1CCN(S(=O)(=O)c2ccc(OC/C(=C\F)CN)nc2)CC1 [Example 37, trifluoroacetate] | – | – | 8.00 | < 4.30
8 | CN(C)C(=O)CC1CCN(S(=O)(=O)c2ccc(OC/C(=C\F)CN)nc2)CC1 [Example 19] | – | – | 8.05 | < 4.30
9 | NC/C(=C/F)COc1ccc(S(=O)(=O)N2C[C@H]3C[C@@]3(C(=O)N3CCOCC3)C2)cn1 [Example 22] | – | – | 7.46 | < 4.30
10 | NC/C(=C/F)COc1ccc(S(=O)(=O)N2CCC(O)(C(F)(F)F)CC2)cn1 [Example 42] | – | – | 8.22 | 4.32
11 | NC/C(=C/F)COc1ccc(S(=O)(=O)N2CCC(C(N)=O)CC2)cn1 [Example 7] | – | – | 8.40 | < 4.30
12 | NC/C(=C/F)COc1ccc(S(=O)(=O)N2C[C@@H]3[C@H](C2)[C@H]3C(=O)O)cn1 [Example 45, trans-3-[6-((Z)-2-Aminomethyl-3-fluoro-allyloxy)-pyridine-3-sulfonyl]-3-aza-bicyclo[3.1.0]hexane-6-carboxylic acid trifluoroacetate] | – | – | 7.17 | < 4.30
13 | NC/C(=C/F)COc1ccc(S(=O)(=O)N2CCC(C(=O)N3CCC3)CC2)cn1 [Example 10] | – | – | 7.66 | < 4.30
14 | NC/C(=C/F)COc1cnc(N2CC[C@H](O)C2)nc1 [Z isomer of example 6 of WO 2018/027892, reference compound] | 8.15 | 4.25 | – | –
15 | COCCNC(=O)CC1CCN(S(=O)(=O)c2ccc(OC/C(=C\F)CN)nc2)CC1 [Example 54] | – | – | 7.72 | 4.57
16 | CC(=O)NCC1CCN(S(=O)(=O)c2ccc(OC/C(=C\F)CN)nc2)CC1 [Example 28] | – | – | 7.89 | < 4.30
17 | CN(C)C(=O)C1CCN(S(=O)(=O)c2ccc(OC/C(=C\F)CN)nc2)CC1 [Example 17] | – | – | 7.80 | < 4.30
18 | COC(=O)C1CCN(S(=O)(=O)c2ccc(OC/C(=C\F)CN)nc2)CC1 [Example 34] | – | – | 8.40 | 4.82
19 | CCNC(=O)C1CCN(S(=O)(=O)c2ccc(OC/C(=C\F)CN)nc2)CC1 [Example 15] | – | – | 8.05 | < 4.30
20 | NC/C(=C/F)COc1ccc(S(=O)(=O)N2CCC[C@H]2C(N)=O)cn1 [Example 13] | – | – | 7.37 | < 4.30
21 | COC1CCN(S(=O)(=O)c2ccc(OC/C(=C\F)CN)nc2)CC1 [Example 40] | – | – | 8.40 | < 4.30
22 | NC/C(=C/F)COc1ccc(S(=O)(=O)N2CCC(CC(=O)N3CC(O)C3)CC2)cn1 [Example 55] | – | – | 7.77 | < 4.30
23 | NC/C(=C/F)COc1ccc(S(=O)(=O)N2CC(C3CCN(C(=O)C4CC4)CC3)C2)cn1 [Example 26] | – | – | 8.05 | < 4.30
24 | CCNC(=O)CC1CCN(S(=O)(=O)c2ccc(OC/C(=C\F)CN)nc2)CC1 [Example 30] | – | – | 7.82 | 4.67
25 | CN(C)C(=O)[C@H]1CCN(S(=O)(=O)c2ccc(OC/C(=C\F)CN)nc2)C1 [Example 4] | – | – | 7.64 | < 4.30
26 | CC1(C(=O)O)CCN(S(=O)(=O)c2ccc(OC/C(=C\F)CN)nc2)CC1 [Example 47] | – | – | 6.26 | < 4.30
